Laboratory results: patent US8362256B2, “Salts of N-[4-(1-cyanocyclopentyl)phenyl]-2-(4-pyridylmethyl)amino-3-pyridinecarboxamide” (Jiangsu Hengrui Medicine Co. Ltd., priority 2008, dated 2013)
Marks after values point to notes of the source that are not given here.

Tested on: human colon cancer Ls174t
Experiment: Efficacy on human colon cancer Ls174t transplanted in nude mice
Settings: for Weight after Removing Tumor, d0 / TV x ± SD, d0: d0 baseline; for RTV x ± SD / T/C / TV x ± SD, dn: dn 14 days; for Weight after Removing Tumor, dn: dn 14 days after first administration
Experimental: BALB/cA-nude mice, ♀, 5-6 weeks-old, available from Shanghai Slaccas experimental animals limited liability company. […] Rearing environment: SPF grade.
After one week adaption, the experimental animals were subcutaneously inoculated with human colon cancer Ls174t tumor tissues. When the tumors grew to 100-300 mm^3, the animals were randomly divided into several groups in day 0 (d0). […] The volumes of tumors and the weights of mice were measured 2-3 times every week, the data of which were recorded. The equation for the calculation of volume of tumors (V) is: V=½×a×b^2 wherein a and b represent length and width, respectively.

[1] = 50 mg/kg p.o. once daily d0-d13
[2] = 100 mg/kg p.o. once daily d0-d13
[3] = 200 mg/kg p.o. once daily d0-d13

Structure (SMILES): N#CC1(c2ccc(NC(=O)c3cccnc3NCc3ccncc3)cc2)CCCC1 [Mesylate of compound A]
- Weight after Removing Tumor, d0 [1]: 19.1 g
- RTV x ± SD [1]: 9.8 ± 3.0
- T/C [1]: 79.7%
- TV x ± SD, dn [1]: 1452 ± 149
- Weight after Removing Tumor, dn [1]: 16.8 g
- TV x ± SD, d0 (50 mg/kg p.o.): 155 ± 33
- Weight after Removing Tumor, d0 [2]: 19.0 g
- RTV x ± SD [2]: 6.4 ± 3.1
- T/C [2]: 52.0^a %
- TV x ± SD, dn [2]: 931 ± 196
- Weight after Removing Tumor, dn [2]: 18.5 g
- TV x ± SD, d0 (100 mg/kg p.o.): 161 ± 44
- Weight after Removing Tumor, d0 [3]: 18.6 g
- RTV x ± SD [3]: 2.0 ± 0.9
- TV x ± SD, dn [3]: 310 ± 114
- Weight after Removing Tumor, dn [3]: 18.5 g
- T/C (200 mg/kg p.o. once daily d0-d13, listed as Mesylate of Compound A): 16.3^a %
- T/C (200 mg/kg p.o. once daily d0-d13, listed as mesylate of compound A): 16.3%
- TV x ± SD, d0 (200 mg/kg p.o.): 158 ± 20
- efficacy at 400 mg/kg (400 mg/kg): did not increase significantly
- ED50 (Mus musculus, LS174T, read-out: ED50 on colon cancer Ls174t): 97.2 mg/kg
- tolerance at 400 mg/kg (mouse, in vivo): could be tolerated by mice
